Source: PMC12084297, “Cytoplasmic connexin43-microtubule interactions promote glioblastoma stem-like cell maintenance and tumorigenicity” (Cell Death & Disease, 2025)

Legend:
β-tubulin = assay: Cellular thermal shift assay (CETSA), β-tubulin target engagement; format: binding, human; conditions: fresh VTC-037 GSC lysates, 3-fold dilutions 222.2-2.7 nM, 1 h, heat challenge 57 °C (Tagg(75)) 20 min, immunoblot, normalized to DMSO control
Description: (§1) For an initial determination of the melting profile of α- and β- tubulin, fresh lysates of GSCs prepared in non-denaturing buffer were dispensed into 96-well PCR plate in stem cell medium (approximately 10,000 cells/well/50 µl), and then subjected to temperature gradient (37–65 °C) for 20 min. Subsequently, centrifugation was performed at 14,000 rpm to sediment the unstable protein content. Supernatant was collected and SDS-PAGE gel was run, and immunodetection was performed to detect α- and β- tubulin using specific primary antibodies described above. A rabbit antibody against β-actin (Cell Signaling Technology; 4970) was used as negative control. Band intensities were quantified on LI-COR C-DiGit Blot Scanner, and subsequently Tagg(50) and Tagg(75) values were calculated for α- and β- tubulin. In a subsequent run, fresh lysates of GSCs were treated at various doses with 3-fold dilutions (222.2, 74.0, 24.7, 8.2 and 2.7 nM) of peptides JM2 and JM2-scrambled, together with DMSO as control, for 1 h. Samples were then subjected to heat challenge at 57 °C for 20 min, and unstable protein was removed by centrifugation step. Following an immunoblotting step, band intensities of the stable tubulin was quantified, and normalized to DMSO control. EC50 values of engagement for both peptide with α- and β- tubulin were subsequently calculated.

β-actin = target: T1, β-actin (Homo sapiens, UniProt P60709); assay: Cellular thermal shift assay (CETSA), actin negative control; format: binding; conditions: VTC-037 GSC lysates, 57 °C, β-actin as negative control
T1 construct: fresh lysates of GSCs prepared in non-denaturing buffer; endogenous in cells; host or cells: VTC-037 patient-derived glioblastoma stem-like cells (lysate)
Description: as §1

VTC-034 GSCs = assay: Peptide uptake by confocal fluorescence microscopy, VTC-034 GSCs; format: in vitro ADME, human; conditions: 50 μM, 24 h, fluorophore-conjugated streptavidin
Description: Cells were washed once with warm PBS before fixing in 4% paraformaldehyde for 20 min at room temperature or ice-cold methanol for 5 min on ice, washed twice, and held in PBS at 4°C until immunostaining was conducted. Cells were permeabilized and blocked in 5% normal goat or donkey serum (Fisher Scientific) and 0.1% Triton X-100 in PBS for 2 h at room temperature. Primary antibodies rabbit anti-Cx43 (MilliporeSigma; C6219), mouse anti-pan Cadherin (MilliporeSigma; C1821), or mouse anti-α-tubulin (MilliporeSigma; T6199) were diluted in blocking buffer and labeling was performed overnight at 4 °C. Cells were washed six times with PBS (2 × quick, 2 × 10 min, 2 × 5 min) prior to incubating with goat anti-mouse or -rabbit IgG secondary antibodies (Thermo Fisher) conjugated to Alexa Fluor 488 (A-11029; A-11034), Alexa Fluor 555 (A-21424; A-21429), or Alexa Fluor 647 (A-21236; A-21245) for confocal; or donkey anti-mouse or -rabbit IgG secondary antibodies conjugated to CF568 (Biotium; 20105 and 20098) or Alexa Fluor 647 (Jackson Immunoresearch; 715-605-151 and 711-605-152) for stochastic optical reconstruction microscopy (STORM; see section below), for 1 h at room temperature. DAPI (Thermo Fisher) was included with secondary antibodies to counterstain nuclei for confocal only and was omitted from labeling for STORM. […]

HES1 mRNA = HES1 mRNA by RT-qPCR, VTC-001 GSCs; format: cell-based, human; conditions: 50 μM, 24 h, compared to antennapedia alone
Description: RNA was extracted using the PureLink^TM RNA mini extraction kit (Thermo Fisher) and on-column DNA digestion was completed using PureLink^TM DNase according to the manufacturer’s instructions. RNA was reverse transcribed to generate cDNA using the iScript^TM Reverse Transcription SuperMix for RT-qPCR kit (Bio-Rad Laboratories). Real-time PCR was performed using the SYBR select Master Mix for CFX (Thermo Fisher) in hard-shell 96-well PCR plates (Bio-Rad Laboratories) on a CFX Connect Real Time System (Bio-Rad Laboratories). Primer sequences used were: hNOTCH1_Fwd: 5’-CGCACAAGGTGTCTTCCAG-3’; hNOTCH1_Rev: 5’-CGGCGTGTGAGTTGATGA-3’; hHES1_Fwd: 5’-GGCTGGAGAGGCGGCTAA-3’; hHES1_Rev: 5’-[…]-3’; hHEY1_Fwd: 5’-[…]-3’; hHEY1_Rev: 5’-[…]-3’.

Sequence: VFFKGVKDRVKGRSD [JM2]
- EC50 (β-tubulin): 7.9 nM
- EC50 target engagement, actin (negative control) (β-actin): no EC50 was detected
- Peptide localization after uptake (VTC-034 GSCs): localized within the cytoplasm of GSCs
- Hes1 mRNA expression (HES1 mRNA): significantly decreased the expression of Notch downstream targets Hes1 and Hey1 at the transcription level

Sequence: GSDVFKRKFVDRKVG [JM2-scrambled, reference compound]
- EC50 (β-tubulin): > 200 nM
- EC50 target engagement, actin (negative control) (β-actin): no EC50 was detected
- Peptide localization after uptake (VTC-034 GSCs): localized within the cytoplasm of GSCs
